# “And” between values parts separate entries of the source, which are not always exact repeats. Equal values may be shown once.
# Key:
# corneal kindled seizures = test: Corneal kindled mouse model; format: in vivo; conditions: mice, 100 mg/kg i.p., 0.25 hrs
# Protocol: Mouse studies were performed by NIH Anticonvulsant Screening Program at the National Institute of Neurological Disorders and Stroke (Stables and Kupferberg, 1997) according to the established NIH experimental procedures outlined below. Compounds were delivered into mice by i.p. injection at a dose of 100 mg/kg in sterile 5% DMSO, 95% Neobee (Josey et al., 2013). One of four methods for seizure induction was subsequently administered to mice at 0.25, 0.5, 1, 2 and 4 h after treatment with compound. (1) Subcutaneous PTZ seizure threshold test. PTZ was administered at a concentration of 85 mg/kg, into the loose fold of skin in the midline of the neck. […] (2) Maximal electroshock test. 60 Hz of 50 mA alternating current was delivered for 0.2 s by corneal electrodes. Mice were considered protected from seizures when the hindlimb tonic extensor was absent (White et al., 1995). (3) Minimal clonic seizure (6 Hz) test. 6 Hz of 32 mA or 44 mA alternating current was delivered for 3 s by corneal electrodes to elicit a psychomotor seizure. Mice were considered protected from seizures when the automatistic behaviors were absent (Barton et al., 2001). (4) Corneal kindled mouse model. […]
# HT-22 neuronal cells = test: Respirometry (OCR, ECAR; Seahorse XF-96); format: cell-based, mouse; set-up: ECAR (glycolysis), difference from control: unit not given here; conditions: HT-22 cells, mean±SEM; for basal cellular respiration, difference in OCR from control: 1 h treatment, OCR as percentage of pre-treatment value; for basal mitochondrial respiration, difference from control: basal minus non-mitochondrial (rotenone); for ATP-linked respiration, difference from control: basal minus oligomycin
# Protocol: Oxygen consumption rates (OCR) and extracellular acidification rates (ECAR) of HT-22 neuronal cells were performed on the XF-96 Extracellular Flux Analyzer (Seahorse Bioscience) using standard methods (Beeson et al., 2010). In brief, cells were cultured in 96 well Seahorse plates in DMEM high glucose media (Invitrogen) supplemented with 10% FBS, 10 mM HEPES, and 1% antibiotic-antimycotic (Invitrogen). The media was replaced with DMEM media supplemented with 25 mM glucose, 10 mM sodium pyruvate, 31 mM NaCl, and 2 mM glutamine at pH 7.4. Each of the four drug ports on the Seahorse sensor cartridge were filled with test compound (media only, 5 μM NQN-1, 10 μM VK3 or 12.5 μM MB), 10 μM oligomycin, 1 μM FCCP, and 5 μM rotenone, which were injected into each well at 20, 80, 110, and 135 min, respectively. The pmol/min OCR rate for each well (9-52 wells/group) was measured. Wells were excluded from the analysis if their OCR values surpassed the Tukey Outlier Rule. In order to standardize the OCR rates across wells, the average OCR value at 17 min (last time point prior to injection of the test compounds) for each experimental group was calculated, and set to 100. All OCR values are given as a percentage of this pre-treatment value. […]
# [1] = Chronic toxicity evaluation in mice (blood count and chemistry); format: in vivo, mouse; conditions: for blood count and chemistry parameters versus vehicle / weight loss, signs of pain or distress: mice, 50 mg/kg i.p. daily, three weeks
# Protocol: Adult (12 weeks of age) mice (Balb/cByJ, 17-20 g, Jackson Laboratory), were housed in temperature-controlled conditions under a light/dark photocycle with food and water supplied ad libitum. Mice were divided randomly into three groups. The first group (n=3) was injected i.p. with compound 2q at 50 mg/kg dissolved in sterile 5% DMSO, 95% Neobee (Spectrum Chemical) (Allen et al., 2006). The second group (n=3) was injected i.p. with compound 2j at 50 mg/kg dissolved in sterile 5% DMSO, 95% Neobee. The third, vehicle control group (n=2) was injected i.p. with an equivalent volume of sterile 5% DMSO, 95% Neobee. All animals were injected between 11:00 a.m. and 12:00 p.m. Animals were sacrificed by CO2 after three weeks of injections. Blood was collected by cardiac puncture and standard blood count and chemistry was evaluated by the MUSC/VA Veterinary Diagnostic Laboratory (Charleston, S.C.). All animal and treatment protocols were in compliance with the Guide for the Care and Use of Laboratory Animals as adopted and promulgated by the National Institutes of Health (Institute of Laboratory Animal Resources, 1996).
# Preliminary in vivo toxicity was assessed for compounds 2q and 2j in mice. […] Adult mice were injected intraperitoneally (i.p.) daily. […] After three weeks of chronic, high dose injections, animals were sacrificed and standard blood count and chemistry analyses performed.
# [2] = Presence in mouse brain by LC-MS; format: in vivo; conditions: mice, i.p. daily for three weeks, brain 2 hours after final injection
# Protocol: VK2 is synthesized in situ where it is needed. […] Utilizing small synthetic VK analog that can perform similarly to VK2 is of novelty for epileptic treatment. Mice were under I.P. daily injection of 2q for three weeks and their brains were harvested 2 hours after the final injection. The mouse brains were extracted with organic solvent. The presence and the level of 2q were determined using LC-MS techniques (FIG. 9). The presence of 2q was detected via mass spectrometry in the mice brain 2 hours after i.p. injections.
# [3] = mouse blood chemistry, 50 mg/kg, 3 wks i.p., individual animals 1-3
# [4] = mouse complete blood count, 50 mg/kg, 3 wks i.p., individual animals 1-3
smiles,measurement,setting,value
"C#CCNC1=CC(=O)c2ccccc2C1=O [Compound 2h, 2-(prop-2-yn-1-ylamino)naphthalene-1,4-dione]",Avg seizure score,corneal kindled seizures,3.75
same,N/F (animals protected/animals tested),corneal kindled seizures,2/4
"O=C1C=C(NCc2ccccc2)C(=O)c2ccccc21 [Compound 2j, 2-(benzylamino)naphthalene-1,4-dione]","basal cellular respiration, difference in OCR from control",HT-22 neuronal cells,−4.14±2.9
same,"basal mitochondrial respiration, difference from control",HT-22 neuronal cells,9.09±3.13
same,"ATP-linked respiration, difference from control",HT-22 neuronal cells,6.58±3.28
same,"ECAR (glycolysis), difference from control",HT-22 neuronal cells,5.03±1.11
same,blood count and chemistry parameters versus vehicle,[1],consistent with those of the vehicle control group
same,"weight loss, signs of pain or distress",[1],no weight loss or outward signs of pain or distress
"O=C1C=C(NCc2cccc(Cl)c2)C(=O)c2ccccc21 [Compound 2q, 2-((3-chlorobenzyl)amino)naphthalene-1,4-dione]",presence in brain (LC-MS),[2],detected
same,blood count and chemistry parameters versus vehicle,[1],consistent with those of the vehicle control group
same,"weight loss, signs of pain or distress",[1],no weight loss or outward signs of pain or distress
same,ALP,[1]; [3],72 U/L and 80 U/L and 60 U/L
same,ALT,[1]; [3],34 U/L and 28 U/L and 33 U/L
same,AST,[1]; [3],89 U/L and 71 U/L and 78 U/L
same,Albumin,[1]; [3],3 g/dL and 3.2 g/dL and 2.8 g/dL
same,BUN,[1]; [3],19 mg/dL (2×) and 20 mg/dL
same,Creatinine,[1]; [3],0.16 mg/dL and 0.23 mg/dL and 0.18 mg/dL
same,Glucose,[1]; [3],195 mg/dL (2×) and 205 mg/dL
same,Total Bilirubin,[1]; [3],0.20 mg/dL
same,Total Protein,[1]; [3],5.2 g/dL and 5.3 g/dL and 4.9 g/dL
same,BA,[1]; [4],0.01 K/uL and 0.05 K/uL and 0.02 K/uL
same,EO,[1]; [4],0.10 K/uL and 0.17 K/uL and 0.01 K/uL
same,HCT,[1]; [4],51.1% and 53.2% and 51.3%
same,Hb,[1]; [4],13.9 g/dL (2×) and 14.5 g/dL
same,LY,[1]; [4],3.30 K/uL and 5.14 K/uL and 2.45 K/uL
same,MCH,[1]; [4],14.8 pg (2×) and 15.3 pg
same,MCHC,[1]; [4],27.2 g/dL and 27.3 g/dL and 27.1 g/dL
same,MCV,[1]; [4],54.4 fL and 56.2 fL and 54.8 fL
same,MO,[1]; [4],0.32 K/uL and 0.43 K/uL and 0.35 K/uL
same,MPV,[1]; [4],4.5 fL and 4.6 fL and 4.4 fL
same,NE,[1]; [4],5.55 K/uL and 3.03 K/uL and 3.78 K/uL
same,PLT,[1]; [4],1139 K/uL and 946 K/uL and 1050 K/uL
same,RBC,[1]; [4],9.39 M/uL and 9.46 M/uL and 9.37 M/uL
same,RDW,[1]; [4],17.8% and 17.7% and 17.4%
same,WBC,[1]; [4],9.28 K/uL and 8.82 K/uL and 6.62 K/uL
"CC1=CC(=O)c2ccccc2C1=O [VK3, menadione, reference compound]","basal cellular respiration, difference in OCR from control",HT-22 neuronal cells,21.57±0.97
same,"basal mitochondrial respiration, difference from control",HT-22 neuronal cells,elevated but failed to reach statistical significance
same,"ATP-linked respiration, difference from control",HT-22 neuronal cells,12.2±3.12
same,"ECAR (glycolysis), difference from control",HT-22 neuronal cells,1.89±0.93
